Reference: ChEMBL document CHEMBL1136879, “Studies on novel 2-imidazolidinones and tetrahydropyrimidin-2(1H)-ones as potential TACE inhibitors: design, synthesis, molecular modeling, and preliminary biological evaluation” (Bioorg Med Chem, 2009)

Biological target: Disintegrin and metalloproteinase domain-containing protein 17 (Homo sapiens) (UniProt P78536)
Experiment: Inhibition of TACE in human THP1 cell lysate at 0.1 uM/L by spectrofluorimetric ELISA relative to control
Format: cell-free
Conditions: THP-1

Sequence of Disintegrin and metalloproteinase domain-containing protein 17 (Homo sapiens) (P78536 whole entry, the tested form may be a part): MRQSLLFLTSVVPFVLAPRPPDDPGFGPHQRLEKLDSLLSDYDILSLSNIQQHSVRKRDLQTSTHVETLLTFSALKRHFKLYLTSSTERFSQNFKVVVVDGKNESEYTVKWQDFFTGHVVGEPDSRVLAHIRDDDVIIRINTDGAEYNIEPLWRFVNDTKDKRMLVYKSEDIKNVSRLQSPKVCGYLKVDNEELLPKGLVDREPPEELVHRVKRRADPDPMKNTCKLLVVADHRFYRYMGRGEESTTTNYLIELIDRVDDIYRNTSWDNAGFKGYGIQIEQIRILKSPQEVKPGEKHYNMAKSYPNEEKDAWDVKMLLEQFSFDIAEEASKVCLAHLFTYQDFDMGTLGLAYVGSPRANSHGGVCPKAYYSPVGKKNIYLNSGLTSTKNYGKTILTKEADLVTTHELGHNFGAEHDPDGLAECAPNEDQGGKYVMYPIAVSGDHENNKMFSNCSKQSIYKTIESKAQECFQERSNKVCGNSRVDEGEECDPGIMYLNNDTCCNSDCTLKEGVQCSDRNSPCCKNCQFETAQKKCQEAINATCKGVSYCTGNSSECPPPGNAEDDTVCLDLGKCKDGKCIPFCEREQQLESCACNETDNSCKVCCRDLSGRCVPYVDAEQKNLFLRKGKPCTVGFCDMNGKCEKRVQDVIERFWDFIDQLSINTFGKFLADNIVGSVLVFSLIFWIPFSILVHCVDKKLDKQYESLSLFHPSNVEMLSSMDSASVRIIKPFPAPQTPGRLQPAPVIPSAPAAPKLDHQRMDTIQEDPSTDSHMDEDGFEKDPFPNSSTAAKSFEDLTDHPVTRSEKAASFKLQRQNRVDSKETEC

| inhibition [%] | Compound |
| --- | --- |
| 50 | CC(C(=O)NO)N1CCN(c2ccc(OCc3ccccn3)cc2)C1=O (centres undefined) |
| 40 | CC(C(=O)NO)N1CCN(c2cccc(OCc3ccc([N+](=O)[O-])cc3)c2)C1=O (centres undefined) |
| 20 | CC(C)Cc1cc(COc2ccc(N3CCCN(C(C)C(=O)O)C3=O)cc2)c2ccccc2n1 (centres undefined) |
| 40 | COc1ccc(CSc2ccc(N3CCN(C(C)C(=O)O)C3=O)cc2)cc1 (centres undefined) |
| 28 | CC(C(=O)O)N1CCN(c2ccc(OCc3ccccn3)cc2)C1=O (centres undefined) |
| 35 | CC(C(=O)O)N1CCCN(c2ccc(OCc3ccccn3)cc2)C1=O (centres undefined) |
| 40 | CC(C(=O)NO)N1CCCN(c2ccc(OCc3cccc4ccccc34)cc2)C1=O (centres undefined) |
| 60 | CC(C)Cc1cc(COc2ccc(N3CCN(C(C)C(=O)NO)C3=O)cc2)c2ccccc2n1 (centres undefined) |
| 42 | COc1ccc(CSc2ccc(N3CCN(C(C)C(=O)NO)C3=O)cc2)cc1 (centres undefined) |
| 37 | CC(C(=O)NO)N1CCCN(c2ccc(OCc3ccccn3)cc2)C1=O (centres undefined) |
| 28 | CC(C(=O)O)N1CCCN(c2ccc(OCc3ccc(-c4ccccc4)cc3)cc2)C1=O (centres undefined) |
| 30 | CC(C(=O)O)N1CCN(c2ccc(OCc3cc(-c4ccccc4)nc4ccccc34)cc2)C1=O (centres undefined) |
| 49 | CCc1cc(COc2ccc(N3CCN(C(C)C(=O)O)C3=O)cc2)c2ccccc2n1 (centres undefined) |
| 47 | CC(C)Cc1cc(COc2ccc(N3CCN(C(C)C(=O)O)C3=O)cc2)c2ccccc2n1 (centres undefined) |
| 31 | CC(C(=O)O)N1CCCN(c2ccc(OCc3cc(-c4ccccc4)nc4ccccc34)cc2)C1=O (centres undefined) |
| 18 | COc1ccc(COc2ccc(N3CCCN(C(C)C(=O)NO)C3=O)cc2)cc1 (centres undefined) |
| 38 | COc1ccc(COc2ccc(N3CCN(C(C)C(=O)NO)C3=O)cc2)cc1 (centres undefined) |
| 30 | CC(C(=O)O)N1CCN(c2ccc(OCc3ccc(-c4ccccc4)cc3)cc2)C1=O (centres undefined) |
| 28 | CC(C(=O)NO)N1CCCN(c2ccc(OCc3ccccc3)cc2)C1=O (centres undefined) |
| 34 | CCc1cc(COc2ccc(N3CCCN(C(C)C(=O)NO)C3=O)cc2)c2ccccc2n1 (centres undefined) |
| 62 | CCc1cc(COc2ccc(N3CCN(C(C)C(=O)NO)C3=O)cc2)c2ccccc2n1 (centres undefined) |
| 39 | CC(C(=O)NO)N1CCN(c2cccc(OCc3ccccc3)c2)C1=O (centres undefined) |
| 28 | CC(C)C[C@H](CC(=O)NO)C(=O)N[C@@H](C)C(=O)N(c1cccc2ccccc12)[C@@H](C)C(=O)NCCN |
| 36 | CC(C(=O)NO)N1CCN(c2ccc(OCc3cccc4ccccc34)cc2)C1=O (centres undefined) |
